{"source": "Sander's compilation of Henry's law constants", "origin": "cited, not measured here", "test": "Henry solubility constant Hcp at 298.15 K (mol/(m3 Pa))", "details": "cited value", "key": {"[1]": {"details": "reference: Burkholder et al. (2015)"}, "[2]": {"details": "reference: Burkholder et al. (2019)"}, "[3]": {"details": "reference: Barcelo and Hennion (1997)"}, "[4]": {"details": "reference: Sander et al. (2006)"}, "[5]": {"details": "reference: Sander et al. (2011)"}, "[6]": {"details": "reference: Fogg and Sangster (2003)"}}, "note": "Values joined by “and” are separate entries in the source; they are usually repeats but may differ in a detail not shown here. Equal values may be shown once.", "data": [{"compound": "ClCC(Cl)(Cl)Cl", "note": "[1,1,1,2-tetrachloroethane]", "values": [{"measurement": "Henry solubility constant Hcp", "setting": "reference: Brockbank (2013)", "value": 0.0042}, {"measurement": "Henry solubility constant Hcp", "setting": "[1]", "value": 0.0042}, {"measurement": "Henry solubility constant Hcp", "setting": "[2]", "value": 0.0042}]}, {"compound": "CN(C)C(=O)Nc1cccc(C(F)(F)F)c1", "note": "[fluometuron]", "values": [{"measurement": "Henry solubility constant Hcp", "setting": "reference: HSDB (2015)", "value": 3800}]}, {"compound": "CCCCCCOC(=O)c1ccccc1C(=O)OCCCCCC", "note": "[dihexyl phthalate]", "values": [{"measurement": "Henry solubility constant Hcp", "setting": "reference: Brockbank (2013)", "value": 8.3}]}, {"compound": "C=C(C)C(=O)OC", "note": "[methyl methacrylate]", "values": [{"measurement": "Henry solubility constant Hcp", "setting": "reference: Brockbank (2013)", "value": 0.029}]}, {"compound": "CCCCc1ccccc1", "note": "[butylbenzene]", "values": [{"measurement": "Henry solubility constant Hcp", "setting": "reference: Brockbank (2013)", "value": 0.00071}]}, {"compound": "CCCCOC(=O)CC", "note": "[butyl propanoate]", "values": [{"measurement": "Henry solubility constant Hcp", "setting": "reference: Brockbank (2013)", "value": 0.022}]}, {"compound": "ClCCOCOCCCl", "note": "[bis-(2-chloroethoxy)-methane]", "values": [{"measurement": "Henry solubility constant Hcp", "setting": "reference: Goldstein (1982)", "value": "8.8 and 26"}]}, {"compound": "CCOC(=O)COc1cc(-c2nn(C)c(OC(F)F)c2Cl)c(F)cc1Cl", "note": "[pyraflufen-ethyl]", "values": [{"measurement": "Henry solubility constant Hcp", "setting": "reference: MacBean (2012b)", "value": 12000}]}, {"compound": "CCCCOC(C)=O", "note": "[butyl ethanoate]", "values": [{"measurement": "Henry solubility constant Hcp", "setting": "reference: Brockbank (2013)", "value": 0.038}, {"measurement": "Henry solubility constant Hcp", "setting": "reference: Goldstein (1982)", "value": 0.021}]}, {"compound": "CCCCCCCCSC(=O)Oc1cc(Cl)nnc1-c1ccccc1", "note": "[pyridate]", "values": [{"measurement": "Henry solubility constant Hcp", "setting": "[3]", "value": 300}]}, {"compound": "CCC(C)CO", "note": "(stereo not drawn) [2-methyl-1-butanol]", "values": [{"measurement": "Henry solubility constant Hcp", "setting": "reference: Brockbank (2013)", "value": 0.76}]}, {"compound": "[CH3][Hg][Cl]", "note": "[chloromethylmercury]", "values": [{"measurement": "Henry solubility constant Hcp", "setting": "reference: WHO (1990)", "value": 20}]}, {"compound": "CC(=O)O[O]", "note": "[peroxyacetyl radical]", "values": [{"measurement": "Henry solubility constant Hcp", "setting": "[1]", "value": "< 0.00099"}, {"measurement": "Henry solubility constant Hcp", "setting": "[2]", "value": "< 0.00099"}, {"measurement": "Henry solubility constant Hcp", "setting": "[4]", "value": "< 0.00099"}, {"measurement": "Henry solubility constant Hcp", "setting": "[5]", "value": "< 0.00099"}]}, {"compound": "CCCCCCCCC=O", "note": "[nonanal]", "values": [{"measurement": "Henry solubility constant Hcp", "setting": "reference: Brockbank (2013)", "value": 0.011}]}, {"compound": "CI", "note": "[iodomethane]", "values": [{"measurement": "Henry solubility constant Hcp", "setting": "reference: Brockbank (2013)", "value": 0.002}, {"measurement": "Henry solubility constant Hcp", "setting": "[1]", "value": 0.002}, {"measurement": "Henry solubility constant Hcp", "setting": "[2]", "value": 0.002}, {"measurement": "Henry solubility constant Hcp", "setting": "reference: Liss and Slater (1974)", "value": 0.0017}, {"measurement": "Henry solubility constant Hcp", "setting": "[4]", "value": 0.002}, {"measurement": "Henry solubility constant Hcp", "setting": "[5]", "value": 0.002}]}, {"compound": "CC(C)CCC(C)(C)C", "note": "[2,2,5-trimethylhexane]", "values": [{"measurement": "Henry solubility constant Hcp", "setting": "reference: Brockbank (2013)", "value": "1.9e-06"}]}, {"compound": "O=S=O", "note": "[sulfur dioxide]", "values": [{"measurement": "Henry solubility constant Hcp", "setting": "reference: Beilke and Gravenhorst (1978)", "value": 0.012}, {"measurement": "Henry solubility constant Hcp", "setting": "[1]", "value": 0.013}, {"measurement": "Henry solubility constant Hcp", "setting": "[2]", "value": 0.013}, {"measurement": "Henry solubility constant Hcp", "setting": "reference: Edwards et al. (1978)", "value": 0.012}, {"measurement": "Henry solubility constant Hcp", "setting": "reference: Maahs (1982)", "value": 0.012}, {"measurement": "Henry solubility constant Hcp", "setting": "reference: Pandis and Seinfeld (1989)", "value": 0.012}, {"measurement": "Henry solubility constant Hcp", "setting": "reference: Rodríguez-Sevilla et al. (2001)", "value": 0.012}, {"measurement": "Henry solubility constant Hcp", "setting": "[4]", "value": 0.013}, {"measurement": "Henry solubility constant Hcp", "setting": "[5]", "value": 0.013}, {"measurement": "Henry solubility constant Hcp", "setting": "reference: Yoo et al. (1986)", "value": 0.012}, {"measurement": "Henry solubility constant Hcp", "setting": "reference: Young (1983)", "value": 0.013}]}, {"compound": "Nc1ccc(-c2ccc(N)c(Cl)c2)cc1Cl", "note": "[3,3'-dichloro-(1,1'-biphenyl)-4,4'-diamine]", "values": [{"measurement": "Henry solubility constant Hcp", "setting": "reference: Mackay et al. (1995)", "value": 12}]}, {"compound": "O=C(O)C(Br)Br", "note": "[dibromoethanoic acid]", "values": [{"measurement": "Henry solubility constant Hcp", "setting": "[1]", "value": 2300}, {"measurement": "Henry solubility constant Hcp", "setting": "[2]", "value": 2300}, {"measurement": "Henry solubility constant Hcp", "setting": "[5]", "value": 2300}]}, {"compound": "CCCCCCCCCC=O", "note": "[decanal]", "values": [{"measurement": "Henry solubility constant Hcp", "setting": "reference: Brockbank (2013)", "value": 0.0063}]}, {"compound": "C=CCC#N", "note": "[3-butenenitrile]", "values": [{"measurement": "Henry solubility constant Hcp", "setting": "reference: Brockbank (2013)", "value": 0.2}]}, {"compound": "Brc1ccc(Br)c(Br)c1", "note": "[1,2,4-tribromobenzene]", "values": [{"measurement": "Henry solubility constant Hcp", "setting": "reference: Kuramochi et al. (2004)", "value": 0.029}]}, {"compound": "CCCCC(=O)OCC", "note": "[ethyl pentanoate]", "values": [{"measurement": "Henry solubility constant Hcp", "setting": "reference: Meynier et al. (2003)", "value": 0.027}]}, {"compound": "FC(F)(F)C(Cl)Br", "note": "(stereo not drawn) [1-bromo-1-chloro-2,2,2-trifluoroethane]", "values": [{"measurement": "Henry solubility constant Hcp", "setting": "[6]", "value": 0.00056}]}, {"compound": "CCOCC", "note": "[diethyl ether]", "values": [{"measurement": "Henry solubility constant Hcp", "setting": "reference: Brockbank (2013)", "value": 0.0099}, {"measurement": "Henry solubility constant Hcp", "setting": "[1]", "value": 0.02}, {"measurement": "Henry solubility constant Hcp", "setting": "[2]", "value": 0.0099}]}, {"compound": "Cc1ccc(O)cc1", "note": "[1-hydroxy-4-methylbenzene]", "values": [{"measurement": "Henry solubility constant Hcp", "setting": "reference: Brockbank (2013)", "value": 13}, {"measurement": "Henry solubility constant Hcp", "setting": "reference: Gaffney and Senum (1984)", "value": 9.9}, {"measurement": "Henry solubility constant Hcp", "setting": "reference: Howard (1989)", "value": 10}]}, {"compound": "COP(=O)(NC(C)=O)SC", "note": "(stereo not drawn) [acephate]", "values": [{"measurement": "Henry solubility constant Hcp", "setting": "[3]", "value": 190000}]}, {"compound": "CCCCC=O", "note": "[pentanal]", "values": [{"measurement": "Henry solubility constant Hcp", "setting": "reference: Brockbank (2013)", "value": 0.066}]}, {"compound": "COC(F)(F)C(Cl)Cl", "note": "[2,2-dichloro-1,1-difluoro-1-methoxyethane]", "values": [{"measurement": "Henry solubility constant Hcp", "setting": "[6]", "value": 0.0029}]}, {"compound": "CCOC(=O)CC(C)C", "note": "[ethyl 3-methylbutanoate]", "values": [{"measurement": "Henry solubility constant Hcp", "setting": "reference: Brockbank (2013)", "value": 0.014}]}, {"compound": "C=CCCCCCCCCCCCCC", "note": "[1-pentadecene]", "values": [{"measurement": "Henry solubility constant Hcp", "setting": "reference: Brockbank (2013)", "value": "2.2e-06"}]}]}
